Measured values published in patent EP2876156A1 (COMMISSARIAT A L'ENERGIE ATOMIQUE ET AUX ENERGIES …, priority 2013, dated 2015).
Read-outs that look alike come from different tables or passages of the source.

Legend:
Type in all cases: biochemical
ENZ1 SEQ ID N°1 = molecular target: T1, ENZ1 SEQ ID N°1 (Catenulispora acidiphila, UniProt C7QJ42); test: Substrate selectivity screening of hydroxylase (conversion by HPLC after Fmoc-Cl derivatization)
T1 construct: His6 (hexahistidine, inserted after the initial methionine) (N); made in house; host or cells: E. coli BL21(DE3) plysE
T1 sequence (C7QJ42 1-358): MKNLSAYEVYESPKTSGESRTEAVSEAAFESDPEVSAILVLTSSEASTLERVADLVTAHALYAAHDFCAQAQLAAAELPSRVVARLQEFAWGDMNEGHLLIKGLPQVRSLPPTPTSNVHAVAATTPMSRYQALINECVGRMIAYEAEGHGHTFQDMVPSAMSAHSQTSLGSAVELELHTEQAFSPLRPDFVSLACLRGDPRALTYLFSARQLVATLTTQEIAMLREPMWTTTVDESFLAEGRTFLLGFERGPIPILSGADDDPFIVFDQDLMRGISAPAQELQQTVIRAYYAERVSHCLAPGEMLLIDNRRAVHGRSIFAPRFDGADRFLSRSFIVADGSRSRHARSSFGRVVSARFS
Protocol: (§1) Enzymatic reaction medium (0.2 µmole, leq.), borate buffer 0,2M pH 7.7 (80 µL) and Fmoc-Cl solution7.5 mM in acetone (100 µL, 0.75 µmole, 3.75 eq) were hand shaked in a closed 1.50 mL eppendorf for one minute. The aqueous layer was extracted with petroleum ether (3*1 mL) to eliminate excess of Fmoc-Cl. 70 µL of the aqueous phase were withdrawn, diluted with 70 µL of acetonitrile and injected into the HPLC. For substrates with two amine functions, 100 µL of Fmoc-Cl solution 15 mM were used.
(§2) Conditions for HPLC analysis: Atlantis® T3 (3 µm 4.5*150 mm) at 35°C with the gradient 50-86% eluent B (MeCN + 0.1% TFA) and eluent A (H2O + 0.1% TFA) in 20 min at 1 mL/min.
(§3) Enzymes (0.08 mg/mL) were screened against substrates (molar ratio α-ketoglutarate/substrate 15/10) in Hepes buffer 50 mM pH 7,5, with Mohr's salt at 1mM and without sodium ascorbate, at room temperature for three hours. The potential conversions of the substrates were determined by HPLC after Fmoc-Cl derivatization as section III here above.

ENZ4 SEQ ID NO:4 = molecular target: T2, ENZ4 SEQ ID NO:4 (Catenulispora acidiphila, UniProt C7Q942); test: as above
T2 construct: His6 (hexahistidine, inserted after the initial methionine) (N); made in house; host or cells: E. coli BL21(DE3) plysE
T2 sequence (C7Q942 1-343): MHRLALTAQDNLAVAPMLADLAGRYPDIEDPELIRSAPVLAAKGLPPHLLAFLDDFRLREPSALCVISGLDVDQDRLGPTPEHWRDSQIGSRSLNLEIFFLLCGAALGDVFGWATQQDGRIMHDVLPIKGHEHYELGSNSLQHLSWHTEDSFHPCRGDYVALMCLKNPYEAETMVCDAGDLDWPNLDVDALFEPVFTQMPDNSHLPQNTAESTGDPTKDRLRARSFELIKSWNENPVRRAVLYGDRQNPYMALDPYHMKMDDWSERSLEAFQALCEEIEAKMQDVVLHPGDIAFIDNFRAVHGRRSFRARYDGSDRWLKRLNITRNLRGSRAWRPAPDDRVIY
Protocol: as §1, §2, §3

ENZ2 SEQ ID NO:2 = molecular target: T3, ENZ2 SEQ ID NO:2 (Flavobacterium johnsoniae, UniProt A5FF23)
T3 construct: His6 (hexahistidine, inserted after the initial methionine) (N); made in house; host or cells: E. coli BL21(DE3) plysE
T3 sequence (A5FF23 1-370): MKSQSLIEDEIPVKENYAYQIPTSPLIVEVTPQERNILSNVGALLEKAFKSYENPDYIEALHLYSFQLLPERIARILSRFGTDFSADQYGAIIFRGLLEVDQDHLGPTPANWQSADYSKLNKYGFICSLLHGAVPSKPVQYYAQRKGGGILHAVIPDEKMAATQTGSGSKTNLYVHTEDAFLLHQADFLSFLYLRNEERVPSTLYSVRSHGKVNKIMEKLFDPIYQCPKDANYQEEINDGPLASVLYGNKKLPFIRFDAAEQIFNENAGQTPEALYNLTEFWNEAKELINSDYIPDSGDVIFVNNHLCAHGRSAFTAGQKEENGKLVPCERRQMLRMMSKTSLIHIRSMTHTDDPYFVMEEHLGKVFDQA
Protocol: as §1, §2, §3

ENZ3 SEQ ID NO:3 = molecular target: T4, ENZ3 SEQ ID NO:3 (Chitinophaga pinensis, UniProt C7PLM6)
T4 construct: His6 (hexahistidine, inserted after the initial methionine) (N); made in house; host or cells: E. coli BL21(DE3) plysE
T4 sequence (C7PLM6 1-382): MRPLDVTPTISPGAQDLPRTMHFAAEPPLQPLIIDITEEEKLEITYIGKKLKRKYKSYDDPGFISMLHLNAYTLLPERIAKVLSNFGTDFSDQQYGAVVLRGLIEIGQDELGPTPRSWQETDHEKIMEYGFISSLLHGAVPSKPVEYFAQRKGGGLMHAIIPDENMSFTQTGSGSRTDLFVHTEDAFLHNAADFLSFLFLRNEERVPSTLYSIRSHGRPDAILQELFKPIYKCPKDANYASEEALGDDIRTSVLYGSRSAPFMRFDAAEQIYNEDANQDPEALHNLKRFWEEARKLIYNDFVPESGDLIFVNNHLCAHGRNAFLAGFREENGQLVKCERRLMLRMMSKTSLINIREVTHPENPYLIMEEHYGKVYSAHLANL
Protocol: as §1, §2, §3

[1] = enzyme 0.08 mg/mL, molar ratio α-ketoglutarate/substrate 15/10, Hepes buffer 50 mM pH 7,5, Mohr's salt 1mM, without sodium ascorbate, room temperature, three hours

Row | SMILES | potential conversions of the substrates, ENZ1 SEQ ID N°1 (ENZ1 SEQ ID N°1; [1]) | potential conversions of the substrates, ENZ4 SEQ ID NO:4 (ENZ4 SEQ ID NO:4; [1]) | potential conversions of the substrates, ENZ2 SEQ ID NO:2 (ENZ2 SEQ ID NO:2; [1]) | potential conversions of the substrates, ENZ3 SEQ ID NO:3 (ENZ3 SEQ ID NO:3; [1]) | potential conversions of the substrates, ENZ1 SEQ ID N°1 (ENZ1 SEQ ID N°1; pH 7) | potential conversions of the substrates, ENZ4 SEQ ID NO:4 (ENZ4 SEQ ID NO:4; pH 7) | potential conversions of the substrates, ENZ2 SEQ ID NO:2 (ENZ2 SEQ ID NO:2; pH 7) | potential conversions of the substrates, ENZ3 SEQ ID NO:3 (ENZ3 SEQ ID NO:3; pH 7)
1 | CC(=O)N[C@@H](CCCNC(=N)N)C(=O)O [Nα-acetyl-L-arginine] | negative | negative | negative | negative |  |  |  | 
2 | NCCC[C@H](N)CC(=O)O [β-L-lysine] | negative | negative | negative | negative |  |  |  | 
3 | CC(=O)N[C@@H](CCCCN)C(=O)O [Nα-acetyl-L-lysine] | negative | negative | negative | negative |  |  |  | 
4 | NC(=O)NCCC[C@H](N)C(=O)O [L-citrulline] | negative | negative | negative | negative |  |  |  | 
5 | NCCSC[C@H](N)C(=O)O [Thia-L-lysine] | negative | negative | positive | positive |  |  |  | 
6 | CCCCCC(N)C(=O)O (stereo not drawn) [2-aminoheptanoic acid] | negative | negative | negative | negative |  |  |  | 
7 | NCCCCCN [Cadaverine] | negative | negative | negative | negative |  |  |  | 
8 | CNCCCC[C@H](N)C(=O)O [Nε-Me-L-lysine] | negative | negative | negative | negative |  |  |  | 
9 | COC(=O)[C@@H](N)CCCCN [L-lysine methyl ester] | negative | negative | negative | negative |  |  |  | 
10 | NCCCC[C@H](NC(=O)[C@@H](N)CCCCN)C(=O)O [L-Lysil-L-lysine] | negative | negative | negative | negative |  |  |  | 
11 | NC(CCCC(=O)O)C(=O)O (stereo not drawn) [2-aminoadipic acid] | negative | negative | negative | negative |  |  |  | 
12 | NCCC[C@H](O)[C@H](N)C(=O)O [(3S)- hydroxy-L-lysine] |  | negative | positive | positive |  |  |  | 
13 | COC(=O)[C@@H](N)CCCNC(=N)N [L-arginine methyl ester] | negative | negative | negative | negative |  |  |  | 
14 | CC(=O)N[C@@H](CCCN)C(=O)O [Nα-acetyl-L-ornithine] | negative | negative | negative | negative |  |  |  | 
15 | NC[C@H](O)CC[C@H](N)C(=O)O [(5R)- hydroxy-L-lysine] | positive | negative | positive | positive |  |  |  | 
16 | COC(=O)[C@@H](N)CCCN [L-ornithine methyl ester] | negative | negative | negative | negative |  |  |  | 
17 | NCCCCN [Putrescine] |  |  |  |  | negative | negative | negative | negative
18 | NCCCC[C@@H](N)C(=O)O [D-lysine] | negative | negative | negative | negative |  |  |  | 
19 | N[C@H]1CCCCNC1=O [L-(-)-α-Amino-ε-caprolactam] | negative | negative | negative | negative |  |  |  | 
20 | N=C(N)NCCC[C@@H](N)C(=O)O [D-arginine] | negative | negative | negative | negative |  |  |  | 
21 | NCCCCCC(=O)O [6-aminohexanoic acid] | negative | negative | negative | negative |  |  |  | 
22 | C[N+](C)(C)CCCC[C@H](N)C(=O)O [Nε-Me3-L-lysine] | negative | negative | negative | negative |  |  |  | 
